# Values quoted from earlier work, collected in patent US6455592B1, “Use of hydrophilic penetration agents in dermatological compositions for the treatment of onychomycoses, and corresponding compositions” (Novartis AG, priority 1991, dated 2002).
# Structures can show the parent of a compound that is named as a salt.
# Details: oral treatment with 250 mg/day over 8 weeks
smiles,measurement,value
"CN(C/C=C/C#CC(C)(C)C)Cc1cccc2ccccc12 [terbinafine-HCl, Terbinafine hydrochloride]",concentration of terbinafine-HCl in the nails,0.4±0.15 ng of terbinafine-HCl per mg of nail material
